Source: US8293786B2 (Alltranz Inc., priority 2007, dated 2012)

Experiments:
human abdominal skin = experiment: In vitro human skin permeation and skin disposition, flow-through diffusion cells (Examples 2, 2A, 2B); type: in vitro ADME; settings: for 30 h skin conc / 42 h cumulative amt / 42 h skin conc / Flux / Lag time / Flux enhancement / 30 h cumulative amt: 90:8:2 PG:H2O:IPM donor solution; for Flux enhancement: total cannabidiol versus cannabidiol
Procedure: Flow through diffusion cells were used for the permeation studies. HEPES-buffered Hanks' balanced salts containing 40% PEG 400 with gentamicin or 40% aqueous PEG 400 with gentamicin were used for the receiver compartment. Donor solution was comprised of 90:8:2 PG:H2O:IPM solution or gel formulation. […] Drug accumulation in the skin after a 24, 30 or 42 h diffusion experiment was determined as μmol/g wet tissue weight.
The skin samples used in the following experiments were obtained from abdominal reduction surgery and dermatomed to a thickness of approximately 200 μm. The skin samples used herein were frozen at −20° C. for less than six months.
One (1) L of receiver fluid was prepared by measuring 1 L of nanopure water into a graduated cylinder. 90% of the water was added to an Erlenmeyer flask. Hanks' salts (1 bottle) were added to the water along with 5.96 g of HEPES and 0.35 g of sodium bicarbonate. The pH of the solution was adjusted with 1 N sodium hydroxide solution to pH 7.4. The remaining water was added and the receiver fluid was filtered through a 0.2μ filter (Millipore, Billerica, Mass.). Fifty (50) mg of gentamicin was added to the filtered receiver fluid and 400 mL of the receiver fluid was removed and replaced with 400 mL of PEG 400.
The receiver fluid was prepared by measuring 600 mL of nanopure H2O into a graduated cylinder. The H2O was filtered through a 0.2μ filter (Millipore, Billerica, Mass.). Fifty (50) mg of gentamicin was added to the filtered H2O and 400 mL of PEG 400 was added.
The prodrugs were made up in a solution of 45:4:1 PG:H2O:IPM. For this solution, the appropriate amount of drug was weighed into a glass silanized culture tube and IPM was added, the 50 μL of PG to coat the drug, then an additional 247 μL PG was added and the donor solution was vortexed again. Finally 26 μL of water was added. The gel formulation resulted from the mixing of absolute ethanol, nanopure water, IPM, Carbopol® 980, 0.1 N sodium hydroxide solution and the respective drug.
The gel formulation was comprised of absolute ethanol, nanopure water, IPM, Carbopol® 980, 0.1 sodium hydroxide solution and respective drug. The anhydrous gel was comprised of absolute ethanol, PEG monoethyl ether 550, Klucel® hydroxypropylcellulose, and respective drug.
Dermatomed skin harvested from abdominoplasty, stored at −20° C., was used for the experiments. A PermeGear flow-through (In-Line, Hellertown, Pa.) diffusion cell system was used for the skin permeation studies.
Diffusion cells were kept at 32° C. with a circulating water bath. Human epidermal skin was arranged in the diffusion cell with stratum corneum (upper layer of skin) facing the donor compartment. The permeation area of the skin was 0.95 cm^2. The data was collected from a human skin donor with three diffusion cells per treatment.
The receiver solution was HEPES-buffered Hanks' balanced salts with gentamicin containing 40% PEG 400 at a pH of 7.4 or 40% aqueous PEG 400 and flow rate was adjusted to 0.8 mL/h. Each cell was charged with 0.10 mL of the respective drug formulation (donor solution) or 50 μL of gel formulation which was rubbed into the skin for 15 sec with a Teflon coated rod. The formulation was applied to ensure complete coverage. […]. Diffusion cells were covered with a stopper or cap for the duration of the study.
Samples were collected into scintillation vials in 3 h increments for either 24, 30, or 42 h. All the samples were stored at 4° C. until extracted. An aliquot (0.5 mL) of the diffusion sample was placed into a silanized HPLC vial and 0.5 mL of acetonitrile was added to the sample, capped and vortexed.
At the end of the experiment, the skin tissue was removed from the diffusion cell, rinsed with nanopure water, and blotted dry with a paper towel. The skin was tape stripped twice using book tape (Scotch™, 3M, St. Paul, Minn.) to remove drug formulation adhering to the tissue surface.

[1] = Plasma stability of cannabidiol prodrugs (bioconversion to parent drug); type: in vitro ADME; settings: Table 20; for % Prodrug at time (h): mono-prodrug in plasma; for % mono-prodrug at time (h) / % Di-prodrug at time (h): di-prodrug in plasma; for % mono-prodrug at time (h): mono-prodrug formed
Procedure: An approximated 1 mg/mL stock solution of each prodrug was prepared in 100 μL of ethanol and 900 μL of acetonitrile. Ten (10) μL of stock was spiked into 1 mL of plasma and vortexed. The samples were kept sealed in an amber vial and samples were obtained to analyze for bioconversion to parent drug.

[2] = Table 17, 40% aqueous PEG 400 receiver fluid, CBD from applied prodrug
[3] = Table 17, 40% aqueous PEG 400 receiver fluid, as applied compound (CBD or intact prodrug)
[4] = Table 17, 40% aqueous PEG 400 receiver fluid, prodrug applied, as total cannabidiol equivalents
[5] = Table 16, 60/40 Hanks'/PEG 400 receiver fluid, CBD from applied prodrug
[6] = Table 16, 60/40 Hanks'/PEG 400 receiver fluid, as applied compound (CBD or intact prodrug)
[7] = Table 16, 60/40 Hanks'/PEG 400 receiver fluid, prodrug applied, as total cannabidiol equivalents
[8] = Table 18, 40% aqueous PEG 400 receiver fluid, CBD from applied prodrug
[9] = Table 18, 40% aqueous PEG 400 receiver fluid, mono-prodrug from applied di-prodrug
[10] = Table 18, 40% aqueous PEG 400 receiver fluid, prodrug applied, as total cannabidiol equivalents

C=C(C)[C@@H]1CCC(C)=C[C@H]1c1c(O)cc(CCCCC)cc1OC(=O)[C@@H](O)CO [ALL00137, CBD (S)-2,3-dihydroxypropanoate]
30 h skin conc (human abdominal skin; [2]): 0.3 ± 0.0 µmol/g
30 h skin conc (human abdominal skin; [3]): 0.9 ± 0.3 µmol/g
30 h skin conc (human abdominal skin; [4]): 1.0 ± 0.5 µmol/g
detected in the skin as (human abdominal skin; in donor solution): prodrug and trace amounts of cannabidiol
permeated through the skin as (human abdominal skin; in donor solution): did not permeate through the skin or was below detection in the receiver samples
total skin concentrations compared to cannabidiol (human abdominal skin; in donor solution): not higher
% Prodrug at time (h) ([1]; 0 h): 89%
% Prodrug at time (h) ([1]; 1 h): 73%
% Prodrug at time (h) ([1]; 3 h): 60%
% Prodrug at time (h) ([1]; 24 h): 4%

C=C(C)C1CCC(C)=CC1c1c(O)cc(CCCCC)cc1OC(=O)COCCOCCOC (stereo not shown) [ALL00140, CBD 2-[2-(2-methoxyethoxy)ethoxy]acetate]
42 h cumulative amt (human abdominal skin; [5]): 24.1 ± 3.3 nmol
42 h skin conc (human abdominal skin; [5]): 0.5 ± 0.3 µmol/g
Flux (human abdominal skin; [5]): 0.9 ± 0.1 nmol/cm^2/h
Lag time (human abdominal skin; [5]): 9.0 ± 2.7 h
42 h cumulative amt (human abdominal skin; [6]): 34.3 ± 15.5 nmol
42 h skin conc (human abdominal skin; [6]): 12.7 ± 6.6 µmol/g
Flux (human abdominal skin; [6]): 1.3 ± 0.5 nmol/cm^2/h
Lag time (human abdominal skin; [6]): 12.6 ± 2.5 h
42 h cumulative amt (human abdominal skin; [7]): 58.1 ± 15.5 nmol
42 h skin conc (human abdominal skin; [7]): 13.2 ± 6.9 µmol/g
Flux (human abdominal skin; [7]): 2.2 ± 0.5 nmol/cm^2/h
Lag time (human abdominal skin; [7]): 11.2 ± 2.2 h
Flux enhancement (human abdominal skin; Table 16, 60/40 Hanks'/PEG 400 receiver fluid): 0.33
detected in the skin as (human abdominal skin; in donor solution): mostly as prodrug in the skin with small amounts of cannabidiol
flux compared to cannabidiol (human abdominal skin; in donor solution): did not increase the flux
lag time compared to cannabidiol (human abdominal skin; in donor solution): slightly decreased
permeated through the skin as (human abdominal skin; in donor solution): intact prodrug and cannabidiol
total skin concentrations compared to cannabidiol (human abdominal skin; in donor solution): not higher
% Prodrug at time (h) ([1]; 0 h): 100%
% Prodrug at time (h) ([1]; 2 h): 0%
% Prodrug at time (h) ([1]; 20 h): 0%
% Prodrug at time (h) ([1]; 24 h): 0%

C=C(C)[C@@H]1CCC(C)=C[C@H]1c1c(OC(C)=O)cc(CCCCC)cc1OC(C)=O [ALL00142, CBD Diacetate]
30 h skin conc (human abdominal skin; [3]): 5.5 ± 0.3 µmol/g
30 h skin conc (human abdominal skin; [4]): 5.5 ± 0.3 µmol/g
detected in the skin as (human abdominal skin; in donor solution): only as intact prodrug
permeated through the skin as (human abdominal skin; in donor solution): did not permeate through the skin or was below detection in the receiver samples
total skin concentrations compared to cannabidiol (human abdominal skin; in donor solution): not higher
% mono-prodrug at time (h) ([1]; 1 h): 0%
% mono-prodrug at time (h) ([1]; 3 h): 0%
% mono-prodrug at time (h) ([1]; 24 h): 0%
% Di-prodrug at time (h) ([1]; 0 h): 100%
% Di-prodrug at time (h) ([1]; 1 h): 98%
% Di-prodrug at time (h) ([1]; 3 h): 90%
% Di-prodrug at time (h) ([1]; 24 h): 10%

C=C(C)[C@@H]1CCC(C)=C[C@H]1c1c(OC(=O)OC)cc(CCCCC)cc1OC(=O)OC [ALL00143, CBD Bis(Methyl Carbonate)]
30 h skin conc (human abdominal skin; [2]): 0.5 ± 0.0 µmol/g
30 h skin conc (human abdominal skin; [3]): 5.8 ± 3.0 µmol/g
30 h skin conc (human abdominal skin; [4]): 6.0 ± 3.2 µmol/g
detected in the skin as (human abdominal skin; in donor solution): prodrug and trace amounts of cannabidiol
permeated through the skin as (human abdominal skin; in donor solution): did not permeate through the skin or was below detection in the receiver samples
total skin concentrations compared to cannabidiol (human abdominal skin; in donor solution): not higher
% mono-prodrug at time (h) ([1]; 1 h): 0%
% mono-prodrug at time (h) ([1]; 3 h): 0%
% mono-prodrug at time (h) ([1]; 24 h): 0%
% Di-prodrug at time (h) ([1]; 0 h): 100%
% Di-prodrug at time (h) ([1]; 1 h): 82%
% Di-prodrug at time (h) ([1]; 3 h): 76%
% Di-prodrug at time (h) ([1]; 24 h): 65%

C=C(C)[C@@H]1CCC(C)=C[C@H]1c1c(OC=O)cc(CCCCC)cc1OC=O [ALL00145, CBD Diformate]
30 h cumulative amt (human abdominal skin; [8]): 17.2 ± 4.5 nmol
30 h skin conc (human abdominal skin; [8]): 8.8 ± 7.0 µmol/g
Flux (human abdominal skin; [8]): 1.4 ± 0.1 nmol/cm^2/h
Lag time (human abdominal skin; [8]): 17.4 ± 3.3 h
30 h skin conc (human abdominal skin; Table 18, 40% aqueous PEG 400 receiver fluid, as applied compound (CBD or intact prodrug)): 3.8 ± 2.1 µmol/g
30 h cumulative amt (human abdominal skin; [9]): 17.5 ± 6.1 nmol
30 h skin conc (human abdominal skin; [9]): 23.5 ± 19.3 µmol/g
Flux (human abdominal skin; [9]): 1.5 ± 0.6 nmol/cm^2/h
Lag time (human abdominal skin; [9]): 19.0 ± 1.9 h
30 h cumulative amt (human abdominal skin; [10]): 34.7 ± 7.0 nmol
30 h skin conc (human abdominal skin; [10]): 36.1 ± 28.2 µmol/g
Flux (human abdominal skin; [10]): 2.9 ± 0.7 nmol/cm^2/h
Lag time (human abdominal skin; [10]): 17.2 ± 2.5 h
Flux enhancement (human abdominal skin; Table 18, 40% aqueous PEG 400 receiver fluid): 0.35
detected in the skin as (human abdominal skin; in donor solution): prodrug, mono-substituted prodrug, ALL00146, and cannabidiol
flux compared to cannabidiol (human abdominal skin; in donor solution): did not increase the flux
lag time compared to cannabidiol (human abdominal skin; in donor solution): wasn't decreased
share permeated through the skin as cannabidiol (human abdominal skin; in donor solution): approximately 50%
share permeated through the skin as mono-substituted prodrug (human abdominal skin; in donor solution): approximately 50%
total skin concentrations compared to cannabidiol (human abdominal skin; in donor solution): higher
% mono-prodrug at time (h) ([1]; 0 h): 40%
% mono-prodrug at time (h) ([1]; 0.5 h): 44%
% mono-prodrug at time (h) ([1]; 22 h): 23%
% mono-prodrug at time (h) ([1]; 24 h): 11%
% Di-prodrug at time (h) ([1]; 0 h): 60%
% Di-prodrug at time (h) ([1]; 0.5 h): 45%
% Di-prodrug at time (h) ([1]; 22 h): 37%
% Di-prodrug at time (h) ([1]; 24 h): 13%
